Measured values from patent publication US5622948A, “Pyrrole pyridazine and pyridazinone anti-inflammatory agents” (Syntex (U.S.A.) Inc., priority 1994, dated 1997).
“And” between values parts separate entries of the source, which are not always exact repeats. Equal values may be shown once. Read-outs that look alike come from different tables or passages of the source.

What was measured:
[1] = two week range finding toxicity study in rats; type: in vivo, rat
Method: A two week range finding study in rats was carried out at daily doses of 10, 30, 100 and 300 mg/kg of Compound (16).

COX I [2] = target: T1, COX I (Homo sapiens, UniProt P23219); assay: radiometric assay, COX I inhibition (human recombinant, baculovirus expressed, partially purified); type: biochemical; set-up: A 2 Kb fragment containing the coding region of COX I; made in house; host or cells: Sf9 insect cells, baculovirus (cDNA from Oxford Biomedical Research); conditions: very low substrate concentration
T1 sequence (P23219 24-599): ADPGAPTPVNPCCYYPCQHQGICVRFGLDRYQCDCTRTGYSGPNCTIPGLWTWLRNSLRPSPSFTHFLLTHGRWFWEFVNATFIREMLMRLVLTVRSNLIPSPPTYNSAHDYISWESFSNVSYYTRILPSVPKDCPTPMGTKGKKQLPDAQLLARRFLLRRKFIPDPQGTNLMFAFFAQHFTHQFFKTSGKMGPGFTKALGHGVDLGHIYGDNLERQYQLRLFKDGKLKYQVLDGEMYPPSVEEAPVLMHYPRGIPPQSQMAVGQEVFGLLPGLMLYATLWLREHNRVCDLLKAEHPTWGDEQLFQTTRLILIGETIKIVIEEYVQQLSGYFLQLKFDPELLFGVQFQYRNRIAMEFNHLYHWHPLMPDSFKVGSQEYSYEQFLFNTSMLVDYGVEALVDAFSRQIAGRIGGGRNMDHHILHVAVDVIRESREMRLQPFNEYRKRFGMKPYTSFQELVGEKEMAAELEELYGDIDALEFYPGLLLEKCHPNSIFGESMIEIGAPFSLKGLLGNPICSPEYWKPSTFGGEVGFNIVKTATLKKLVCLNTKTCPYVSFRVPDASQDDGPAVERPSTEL

[3] = tested on: adjuvant-induced arthritis pain; assay: adjuvant-induced arthritis pain model in the rat; type: in vivo; conditions: preliminary test at 0.1, 1.0, 10 and 30 mg/kg, read-out: doses at which significant and prolonged analgesia is obtained
Method: Compound (16) was also evaluated using an adjuvant-induced arthritis pain model in the rat, in which pain is assessed by eliciting a vocal response upon squeezing or flexing an inflamed ankle joint.

COX I [4] = target: T1, COX I; assay: TxB2 production in human whole blood activated with ionophore (COX I); conditions: COX I IC50, inhibition of TxB2 production
COX I [5] = assay: PGE2 production in freshly isolated human monocytes; type: cell-based; conditions: EIA, cells may be expressing COX II constitutively, read-out: COX I IC50, inhibition of PGE2 production
Method: (§1) A summary of activities of Compound (16) against COX I and COX II in cell-free enzyme preparations and whole cells is presented in Table 1. The following abbreviations are used: AA is arachidonic acid, IL-1 is interleukin 1, PMA is phorbol myristate acetate, A23187 is a calcium ionophore (Sigma), BSA is bovine serum albumin and LPS is a lipopolysaccharide (Sigma).
Human monocytes 30 min incubation with Compound (16)
freshly isolated a) 10 min activation, A23187 + PMA
These cells may be expressing COX II
b) 30 min activation, A23187 + PMA
constitutively c) 10 min activation, 20 μM AA
d) 30 min activation, 20 μM AA
(§2) EIA determination of PGE2

[6] = tested on: PGE2 levels in the air-pouch exudate; assay: PGE2 in exudate of carrageenan-induced inflammation (air-pouch model) in rats; type: in vivo, rat; conditions: Rattus norvegicus; 0.1-30 mg/kg, relative to vehicle; read-out: IC50, inhibition of PGE2 levels in the exudate
[7] = two week range finding toxicity study in cynomolgus monkeys; type: in vivo, cynomolgus monkey; conditions: 10, 30, 100 and 300 mg/kg daily, two weeks
Method: A two week range finding study in cynomolgus monkeys was carried out at daily doses of 10, 30, 100 and 300 mg/kg of Compound (16).

COX II = target: T2, COX II (Homo sapiens, UniProt P35354); assay: PGE2 production in human foreskin fibroblasts stimulated with IL-1 and PMA; type: cell-based; set-up: A 1.8 Kb DNA fragment containing the coding region of human COX II was generated by PCR; made in house; host or cells: Sf9 insect cells, baculovirus; conditions: read-out: COX II IC50, inhibition of PGE2 production
T2 sequence (P35354 18-604): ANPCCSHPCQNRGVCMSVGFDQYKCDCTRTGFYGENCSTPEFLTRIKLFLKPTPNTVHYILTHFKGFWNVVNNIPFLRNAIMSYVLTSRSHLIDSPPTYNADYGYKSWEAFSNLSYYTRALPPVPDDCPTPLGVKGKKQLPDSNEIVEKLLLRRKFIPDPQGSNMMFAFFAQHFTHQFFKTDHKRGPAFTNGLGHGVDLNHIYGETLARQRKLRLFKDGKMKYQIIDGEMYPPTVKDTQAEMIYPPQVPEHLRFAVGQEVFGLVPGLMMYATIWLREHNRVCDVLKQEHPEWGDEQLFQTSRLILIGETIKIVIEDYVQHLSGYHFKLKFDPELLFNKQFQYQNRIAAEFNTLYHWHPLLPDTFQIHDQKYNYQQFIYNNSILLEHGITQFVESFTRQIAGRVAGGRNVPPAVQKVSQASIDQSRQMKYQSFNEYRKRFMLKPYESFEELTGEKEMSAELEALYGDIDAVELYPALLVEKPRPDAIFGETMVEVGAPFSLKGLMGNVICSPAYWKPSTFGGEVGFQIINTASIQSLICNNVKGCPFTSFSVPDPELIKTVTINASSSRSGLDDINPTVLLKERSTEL
Method: as §1
Human foreskin fibroblasts
30 min incubation with Compound (16)
16 hr admulation with IL-1 and PMA
washing, transfer to fresh media
as §2
16 hr stimulation with IL-1 and PMA
RIA determination of PGE2

[8] = tested on: adjuvant-induced arthritis; assay: adjuvant-induced arthritis in the rat; type: in vivo
[9] = tested on: carrageenan-induced paw edema; assay: Carrageenan-induced paw edema in the rat; type: in vivo; conditions: oral
Method: Carrageenan-induced paw edema in the rat has been used as the primary in vivo screen for anti-inflammatory activity of most NSAIDs.
Over a series of assays, in which Compound (16), suspended in SSV, was administered orally to rats 1 hour prior to injection of carrageenan, Compound (16) inhibited carrageenan-induced paw edema (ED30 =1.1±1.0 mg/kg).

[10] = 10, 30, 100 and 300 mg/kg daily, two weeks

Question: Which results are given for Cc1cc(Cc2ccc(=O)[nH]n2)n(C)c1C(=O)c1ccc(Cl)cc1 [Compound 16, 6-[1,4-dimethyl-5-(4chloro-benzoyl)-1H-pyrrol-2-ylmethyl]-2H-pyridazin-3-one]?
Answer: clinical chemistry [1, 10]: No clinical chemistry abnormalities were detected; clinical signs [1, 10]: no adverse clinical signs were noted; gross necropsy findings [1, 10]: no drug-related gross necropsy findings; histopathological findings [1, 10]: no histopathological findings; lesions in the stomach or intestines [1, 10]: no lesions were noted in the stomach or intestines; intestinal lesions in toxicology range-finding study ([1]; up to 300 mg/kg/day for 14 days): no intestinal lesions were observed; type of inhibition of COX I (COX I [2]): weak, competitive, non-time dependent inhibition; minimal effective dose [3]: ≥ 10 mg/kg; IC50 (COX I [4]; 15 min incubation with compound, 30 min with A23187 (ionophore), RIA determination of TxB2): 5600 nM; IC50 (COX I [4]; 30 min incubation, 15 min activation, A23187, EIA determination of TxB2): 3000 nM; IC50 (COX I [5]; 30 min incubation; a) 10 min activation, A23187 + PMA): 5200 nM; IC50 (COX I [5]; 30 min incubation; b) 30 min activation, A23187 + PMA): 310 nM; IC50 (COX I [5]; 30 min incubation; c) 10 min activation, 20 μM AA): 4600 nM; IC50 (COX I [5]; 30 min incubation; d) 30 min activation, 20 μM AA): > 10000 nM; ED50 [6]: 0.7 to 2 mg/kg; clinical signs, clinical chemistry, gross pathology or histopathology [7]: No abnormalities were observed; IC50 (COX II; 30 min incubation, 10 min activation, 5 μM A23187, RIA determination of PGE2): 120 nM and 170 nM and 140 nM; IC50 (COX II; 30 min incubation; a) 10 min activation with 5 μM A23187, EIA determination of PGE2): ≤ 100 nM; IC50 (COX II; 30 min incubation; b) 10 min activation with 20 μM AA + FA-free BSA, EIA determination of PGE2): ~2700 nM; ED40 ([8]; Rattus norvegicus, po, 408 h, based on the three assays): 3.2 ± 2.6 mg/kg; inhibition of adjuvant-induced arthritis ([8]; first test, 2 mg/kg/day, oral bid 17 days): 31%; inhibition of adjuvant-induced arthritis ([8]; first test, 5 mg/kg/day, oral bid 17 days): 66%; inhibition of adjuvant-induced arthritis ([8]; second test, 2 mg/kg/day): 43%; inhibition of adjuvant-induced arthritis ([8]; second test, 5 mg/kg/day): 48%; inhibition of adjuvant-induced arthritis ([8]; second test, 10 mg/kg/day): 52%; maximum inhibition of adjuvant-induced arthritis ([8]; third test, 100 mg/kg): 80%; ED30 ([9]; Rattus norvegicus, in SSV, 1 hour prior to carrageenan, series of assays, read-out: ED30, inhibition of carrageenan-induced paw edema): 1.1 ± 1 mg/kg; inhibition of paw edema at the appropriate dose ([9]; maximum amount achievable with NSAIDs): ~ 60%
